Results reported in US10030064B2, “Mammalian cell culture processes for protein production” (priority 2009, dated 2018).
Like-named read-outs stand apart in the source and are kept apart here.

Columns and labels:
CHO cells [1] = assay: Shake flask CHO culture in serum free medium: viable cell density, viability, growth rate, productivity (Example 3); type: cell-based, Chinese hamster; conditions: for final viability: over 0.1 to 10 μM; for Final VCD / Peak VCD / Viability (final, day 10): added two days after inoculation
Method: The CHO cell line used in this study was subcloned from DG44 parental cells and cultured in a proprietary chemically-defined growth medium.
The experiments were carried out in 250-mL shake flasks (VWR international) with starting volumes of 100 mL and initial cell densities of 6×10^5 cells/mL. The cultures were placed on a shaker platform (VWR international) at 150 rpm and maintained at 37° C. and 6% CO2 for ten days. The cultures were sampled daily and the pH adjustment using 1M sodium carbonate, and fed with glucose and glutamine every two days in order to maintain them at certain levels. Cell density and viability were measured off-line a Bioprofile Analyzer 400 (Nova Biomedical Corporation, Waltham, Mass.).
The eluted protein was quantified using a 10-level standard curve.

glutathione reductase = assay: Western blot of glutathione reductase in CHO cells; type: cell-based, Chinese hamster; conditions: 1 μM RU-486 added one day before 0.1 μM DEX
Method: After being washed with 1×PBS, approximately 10^7 CHO cells were lysed with 1 mL of Laemmli sample buffer (Bio-Rad Laboratories) and denatured at 90° C. for 5 minutes. The whole cell lysates were separated on a 4-15% SDS-polyacrylamide gel, blotted to 0.45 μm nitrocellulose membranes (Bio-Rad Laboratories), and probed with primary antibodies and secondary antibody. The primary antibody for detection of glutathione reductase was the monoclonal antibody raised against amino acids 391-510 mapping near the C-terminus of glutathione reductase of human origin (Santa Cruz Biotechnology, Santa Cruz, Calif.). […] The primary antibody used for detection of glucocorticoid receptor was anti-human monoclonal antibody (Santa Cruz Biotechnology, Santa Cruz, Calif.). The secondary antibody was horseradish peroxidase (HRP)-conjugated anti-mouse antibody (Santa Cruz Biotechnology, Santa Cruz, Calif.). Membranes were stripped and re-probed with β-actin antibody (Santa Cruz Biotechnology) and HRP-conjugated secondary antibody. Immunodetection was performed with the enhanced chemiluminescence Western blotting detection system (GE Healthcare) and visualized with VersaDoc Imaging System (Bio-Rad Laboratories).
A Western Blot was performed to detect glutathione reductase expression in the whole cell lysates prepared from the CHO cells treated with various concentrations of DEX. […]

CHO cells [2] = assay: Preliminary experiment: RU-486 on CHO cell viability, growth and metabolic parameters; type: cell-based, Chinese hamster
Source text: RU-486 is a GR antagonist and often used as a tool drug in many GR related studies.

GILZ = assay: Western blot of GILZ protein in CHO cells; type: cell-based, Chinese hamster; conditions: in the presence of 1 μM RU-486
Method: Approximately 10^7 CHO cells were washed with 1× phosphate buffered saline (PBS) solution, lysed with 1 mL of Laemmli sample buffer (Bio-Rad Laboratories, Hercules, Calif.), and then denatured at 90° C. for 5 minutes. […] Membranes were stripped and re-probed with β-actin antibody (Santa Cruz Biotechnology) and an HRP-conjugated anti-mouse secondary antibody. Immunodetection was performed with the enhanced chemiluminescence Western blotting detection system (GE Healthcare UK Limited Little Chalfont, Buckinghamshire, UK) and visualized with a VersaDoc Imaging System (Bio-Rad Laboratories, Hercules, Calif.).
The blot was also reprobed with the beta-actin antibody as a control to assess equivalent gel loading.

[3] = test system: purified IgG-fusion proteins; conditions: Tris-acetate buffer pH 7.5, 37° C., 1 h
Method: Reduced glutathione (GSH) at 0, 1 and 3 mM final concentrations was added to Tris-acetate buffered (pH 7.5) solution of purified IgG-fusion proteins, and the mixture of GSH and proteins was incubated at 37° C. for 1 h before SEC-HPLC analysis.
SEC analysis was performed according to the previously published method (Perico et al., 2008) with some modifications. Briefly, the Protein-A purified samples were run on an Agilent 1100 HPLC system (Agilent Technologies, Inc., Palo Alto, Calif.) on Tosoh Bioscience TSK-Gel G3000 SWxl column (7.8 ID×30 cm, 5 μm particles). The mobile phase contained 1× Phosphate Buffered Saline (PBS) at pH 7.4. The flow rate was 0.5 mL/min, and column temperature was controlled at 25° C. The signal was monitored by absorbance at wavelength of 280 nm.
To determine if GSH itself could affect protein aggregation by directly interacting with the proteins, we did in vitro study by adding GSH to Protein-A purified IgG-fusion proteins that were reconstituted in Tris-acetate buffer, and analyzed SEC profiles.

Compound | final viability (CHO cells [1]) | Final VCD (CHO cells [1]; treatment concentration 0.1 μM) | Peak VCD (CHO cells [1]; treatment concentration 0.1 μM) | Viability (final, day 10) (CHO cells [1]; treatment concentration 0.1 μM) | Final VCD (CHO cells [1]; treatment concentration 1 μM) | Peak VCD (CHO cells [1]; treatment concentration 1 μM) | Viability (final, day 10) (CHO cells [1]; treatment concentration 1 μM) | Final VCD (CHO cells [1]; treatment concentration 10 μM) | Peak VCD (CHO cells [1]; treatment concentration 10 μM) | Viability (final, day 10) (CHO cells [1]; treatment concentration 10 μM) | up-regulatory effect of DEX on glutathione reductase expression (glutathione reductase) | effect on cell viability and cell growth rate (CHO cells [2]; RU-486 at 10 μM) | effect on CHO cell viability and metabolic parameters (CHO cells [2]; RU-486 concentrations not higher than 1 μM) | DEX-induced overexpression of GILZ protein (GILZ) | reduction rate of percentage of high molecular weight species ([3]; 1 mM GSH) | reduction rate of percentage of high molecular weight species ([3]; 3 mM GSH)
C[C@]12CCC(=O)C=C1CC[C@@H]1[C@@H]2[C@@H](O)C[C@@]2(C)[C@H]1CC[C@]2(O)C(=O)CO [HYC, hydrocortisone] | 60.1-75.5% | 7.86 ×10^6 cells/mL | 10.06 ×10^6 cells/mL | 60.1% | 8.15 ×10^6 cells/mL | 9.51 ×10^6 cells/mL | 65.1% | 7.80 ×10^6 cells/mL | 8.44 ×10^6 cells/mL | 75.5% | – | – | – | – | – | –
C[C@]12C=CC(=O)C=C1CC[C@@H]1[C@@H]2[C@@H](O)C[C@@]2(C)[C@H]1CC[C@]2(O)C(=O)CO [PRD, prednisolone] | 69.4-75.5% | 8.26 ×10^6 cells/mL | 8.99 ×10^6 cells/mL | 69.4% | 8.79 ×10^6 cells/mL | 9.25 ×10^6 cells/mL | 76.8% | 8.27 ×10^6 cells/mL | 8.05 ×10^6 cells/mL | 77.5% | – | – | – | – | – | –
CC#C[C@]1(O)CC[C@H]2[C@@H]3CCC4=CC(=O)CCC4=C3[C@@H](c3ccc(N(C)C)cc3)C[C@@]21C [RU-486, mifepristone] | – | – | – | – | – | – | – | – | – | – | attenuated | significant decrease | did not affect | significantly decreased | – | –
N[C@@H](CCC(=O)N[C@@H](CS)C(=O)NCC(=O)O)C(=O)O [GSH, Reduced glutathione] | – | – | – | – | – | – | – | – | – | – | – | – | – | – | 15.3% | 27.3%
